According to patent publication US20090196912A1, “Pyridinylamines” (GPC Botech AG, priority 2004, published 2009):

Tests used:
Test in all cases: Generic kinase assay (33P-ATP, Myelin Basic Protein)
Format in all cases: biochemical
[1] = biological target: RICK (Homo sapiens, UniProt O43353); details: class symbol: % inhibition at 10 μM or IC50; for inhibition at 10 µM: 1 h, read-out: Inhibitory effect on target RICK
Description: (§1) In order to determine the inhibitory effect of the compounds of the subject invention on various target enzymes a generic kinase assay was established.
(§2) Reactions were performed in 96-Well U-bottom microtiter plates (Greiner Bio-One; Frickenhausen/Germany, Cat. No. 650161), hereinafter designated “Assay Plates”. 10 μl of a solution comprising 40 μM Myelin Basic Protein (Invitrogen; Carlsbad, Calif./USA; Cat. No. 13228-010) and 4 μM ATP in three-fold concentrated Reaction Buffer (60 mM Tris-HCl, pH 7.5; 30 mM MgCl2; 3 mM dithiothreitol) were added into each well of the Assay Plate. 10 μl of serial dilutions of the compounds of the subject invention, dissolved in 4% DMSO, were then added into each well, except for Positive Control. Wells (C+ wells) and Negative Control Wells (C− wells). 10 μl of 4% DMSO without compounds were added to C+ and C− wells. 10 μl of a 500 mM solution of EDTA in water was then added to C− wells. Then 10 μl of a solution containing 50 μCi/ml Adenosine 5′-[γ-^33P]triphosphate in water was added to each well. To start the reaction 10 μl of the kinase to be assayed was added to each well. The optimal amount of kinase in the assay was determined to be the amount which yields to a turn-over of about 10% of ATP. Assay Plates were incubated for one hour at room temperature. Then 10 μl of a 500 mM solution of EDTA in water was added to each well except C− wells. Samples were now ready for measurement.
(§3) Measurements were preformed in 96-Well MAPH-Filter Plates (Millipore; Billerica, Mass./United States; Cat. No. MAPHNOB50), hereinafter designated “Measurement Plates”. Measurement Plates were washed with 200 μl of a 0.75% H3PO4 solution per well. The H3PO4 solution was exhausted using a Millipore vacuum station. 60 μl of a 0.75% H3PO4 solution was then added into each well, followed by the transfer of 30 μl of each well from the Assay Plate into the corresponding wells of the Measurement Plate. The Measurement Plate was incubated for 30 minutes at room temperature. Thereafter each well was washed three times with 200 μl of a 0.75% H3PO4 solution using a Millipore vacuum station. 20 μl of scintillation liquid (Supermix Liquid Szintillator; Perkin Elmer, Wellesley. Mass./United States; Cat. No. 1200-439) was then added to each well of the Measurement Plate. The plate was sealed and stored for 30 minutes in the darkness before radioactivity was quantified in a MicroBeta Scintillation Counter (Perkin Elmer, Wellesley. Mass./United States).

[2] = biological target: ROCK 2 (Homo sapiens, UniProt O75116); details: class symbol: % inhibition at 10 μM or IC50; for inhibition at 10 µM: 1 h, read-out: Inhibitory effect on target ROCK 2
Chain of ROCK 2 (O75116 whole entry, species assumed): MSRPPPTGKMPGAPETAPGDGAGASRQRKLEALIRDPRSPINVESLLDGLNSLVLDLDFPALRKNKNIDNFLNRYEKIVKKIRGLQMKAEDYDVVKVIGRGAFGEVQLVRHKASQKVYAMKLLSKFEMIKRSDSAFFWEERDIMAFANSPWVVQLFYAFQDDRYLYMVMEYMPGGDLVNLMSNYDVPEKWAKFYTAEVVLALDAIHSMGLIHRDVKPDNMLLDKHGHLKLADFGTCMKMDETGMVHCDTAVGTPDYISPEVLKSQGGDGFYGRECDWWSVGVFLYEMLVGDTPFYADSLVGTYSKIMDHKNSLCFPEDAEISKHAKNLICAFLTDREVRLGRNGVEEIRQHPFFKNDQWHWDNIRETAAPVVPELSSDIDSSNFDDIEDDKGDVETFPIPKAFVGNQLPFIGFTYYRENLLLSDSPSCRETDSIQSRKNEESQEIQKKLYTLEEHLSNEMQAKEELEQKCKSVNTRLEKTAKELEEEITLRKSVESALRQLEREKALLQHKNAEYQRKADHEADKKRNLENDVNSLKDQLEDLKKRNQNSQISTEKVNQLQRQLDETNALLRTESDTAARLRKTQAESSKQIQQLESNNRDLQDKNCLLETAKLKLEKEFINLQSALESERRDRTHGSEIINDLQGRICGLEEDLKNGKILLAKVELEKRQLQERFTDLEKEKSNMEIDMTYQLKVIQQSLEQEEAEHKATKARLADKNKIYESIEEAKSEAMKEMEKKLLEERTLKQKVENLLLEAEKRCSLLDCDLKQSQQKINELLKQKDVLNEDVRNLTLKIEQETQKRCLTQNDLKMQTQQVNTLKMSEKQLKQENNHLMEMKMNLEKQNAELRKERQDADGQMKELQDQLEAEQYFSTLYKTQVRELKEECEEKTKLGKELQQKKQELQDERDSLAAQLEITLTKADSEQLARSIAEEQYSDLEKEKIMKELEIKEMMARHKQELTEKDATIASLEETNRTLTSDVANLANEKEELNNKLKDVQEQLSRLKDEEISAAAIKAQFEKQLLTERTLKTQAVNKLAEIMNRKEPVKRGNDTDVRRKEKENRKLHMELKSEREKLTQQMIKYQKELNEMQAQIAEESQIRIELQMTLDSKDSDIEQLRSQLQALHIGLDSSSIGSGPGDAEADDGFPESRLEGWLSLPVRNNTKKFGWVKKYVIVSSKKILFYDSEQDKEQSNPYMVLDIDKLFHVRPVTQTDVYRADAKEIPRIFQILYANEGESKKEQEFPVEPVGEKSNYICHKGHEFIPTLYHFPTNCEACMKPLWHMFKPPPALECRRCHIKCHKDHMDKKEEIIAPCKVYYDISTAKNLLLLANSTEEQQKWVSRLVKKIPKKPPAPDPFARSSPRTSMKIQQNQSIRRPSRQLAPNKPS
Description: as §1, §2, §3

[3] = tested on: PDGFR; details: class symbol: % inhibition at 10 μM or IC50
Description: as §1, §2, §3

[4] = biological target: p56Lck (Homo sapiens, UniProt P06239); details: 1 h; class symbol: % inhibition at 10 μM or IC50; read-out: Inhibitory effect on target p56Lck
Chain of p56Lck (P06239 whole entry, species assumed): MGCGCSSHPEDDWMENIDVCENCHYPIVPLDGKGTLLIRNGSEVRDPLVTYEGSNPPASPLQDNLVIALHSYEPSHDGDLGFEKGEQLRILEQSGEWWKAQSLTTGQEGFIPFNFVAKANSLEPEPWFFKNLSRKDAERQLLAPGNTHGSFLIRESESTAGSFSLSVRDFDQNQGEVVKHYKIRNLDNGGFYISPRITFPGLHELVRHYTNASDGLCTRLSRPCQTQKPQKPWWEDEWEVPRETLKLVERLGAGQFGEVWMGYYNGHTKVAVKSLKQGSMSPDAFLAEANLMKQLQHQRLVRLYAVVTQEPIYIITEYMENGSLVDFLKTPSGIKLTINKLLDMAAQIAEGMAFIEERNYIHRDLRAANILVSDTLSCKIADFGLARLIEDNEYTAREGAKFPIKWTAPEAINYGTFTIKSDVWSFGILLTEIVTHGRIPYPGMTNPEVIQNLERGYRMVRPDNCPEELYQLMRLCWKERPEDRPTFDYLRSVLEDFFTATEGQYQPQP
Description: as §1, §2, §3

[5] = biological target: cRaf (Homo sapiens, UniProt P04049); details: 1 h; class symbol: % inhibition at 10 μM or IC50; read-out: Inhibitory effect on target cRaf
Chain of cRaf (P04049 whole entry, species assumed): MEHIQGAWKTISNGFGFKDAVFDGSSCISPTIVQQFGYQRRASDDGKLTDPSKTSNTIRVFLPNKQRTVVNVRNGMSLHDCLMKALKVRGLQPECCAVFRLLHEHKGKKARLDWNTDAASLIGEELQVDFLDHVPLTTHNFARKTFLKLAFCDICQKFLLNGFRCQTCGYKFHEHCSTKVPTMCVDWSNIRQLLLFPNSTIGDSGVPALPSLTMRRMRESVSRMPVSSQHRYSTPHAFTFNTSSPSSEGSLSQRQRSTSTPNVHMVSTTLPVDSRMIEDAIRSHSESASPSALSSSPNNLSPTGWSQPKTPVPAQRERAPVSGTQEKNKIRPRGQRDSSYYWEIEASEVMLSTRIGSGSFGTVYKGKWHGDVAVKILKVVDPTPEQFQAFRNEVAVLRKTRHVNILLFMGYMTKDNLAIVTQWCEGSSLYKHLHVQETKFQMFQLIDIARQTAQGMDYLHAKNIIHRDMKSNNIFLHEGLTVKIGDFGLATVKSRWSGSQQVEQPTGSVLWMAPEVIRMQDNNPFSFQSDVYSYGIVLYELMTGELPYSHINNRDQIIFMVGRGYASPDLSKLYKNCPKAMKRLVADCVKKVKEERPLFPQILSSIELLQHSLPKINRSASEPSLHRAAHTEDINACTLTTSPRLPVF
Description: as §1, §2, §3

[6] = biological target: Abl (Homo sapiens, UniProt P00519); details: 1 h; class symbol: % inhibition at 10 μM or IC50; read-out: Inhibitory effect on target Abl
Chain of Abl (P00519 whole entry, species assumed): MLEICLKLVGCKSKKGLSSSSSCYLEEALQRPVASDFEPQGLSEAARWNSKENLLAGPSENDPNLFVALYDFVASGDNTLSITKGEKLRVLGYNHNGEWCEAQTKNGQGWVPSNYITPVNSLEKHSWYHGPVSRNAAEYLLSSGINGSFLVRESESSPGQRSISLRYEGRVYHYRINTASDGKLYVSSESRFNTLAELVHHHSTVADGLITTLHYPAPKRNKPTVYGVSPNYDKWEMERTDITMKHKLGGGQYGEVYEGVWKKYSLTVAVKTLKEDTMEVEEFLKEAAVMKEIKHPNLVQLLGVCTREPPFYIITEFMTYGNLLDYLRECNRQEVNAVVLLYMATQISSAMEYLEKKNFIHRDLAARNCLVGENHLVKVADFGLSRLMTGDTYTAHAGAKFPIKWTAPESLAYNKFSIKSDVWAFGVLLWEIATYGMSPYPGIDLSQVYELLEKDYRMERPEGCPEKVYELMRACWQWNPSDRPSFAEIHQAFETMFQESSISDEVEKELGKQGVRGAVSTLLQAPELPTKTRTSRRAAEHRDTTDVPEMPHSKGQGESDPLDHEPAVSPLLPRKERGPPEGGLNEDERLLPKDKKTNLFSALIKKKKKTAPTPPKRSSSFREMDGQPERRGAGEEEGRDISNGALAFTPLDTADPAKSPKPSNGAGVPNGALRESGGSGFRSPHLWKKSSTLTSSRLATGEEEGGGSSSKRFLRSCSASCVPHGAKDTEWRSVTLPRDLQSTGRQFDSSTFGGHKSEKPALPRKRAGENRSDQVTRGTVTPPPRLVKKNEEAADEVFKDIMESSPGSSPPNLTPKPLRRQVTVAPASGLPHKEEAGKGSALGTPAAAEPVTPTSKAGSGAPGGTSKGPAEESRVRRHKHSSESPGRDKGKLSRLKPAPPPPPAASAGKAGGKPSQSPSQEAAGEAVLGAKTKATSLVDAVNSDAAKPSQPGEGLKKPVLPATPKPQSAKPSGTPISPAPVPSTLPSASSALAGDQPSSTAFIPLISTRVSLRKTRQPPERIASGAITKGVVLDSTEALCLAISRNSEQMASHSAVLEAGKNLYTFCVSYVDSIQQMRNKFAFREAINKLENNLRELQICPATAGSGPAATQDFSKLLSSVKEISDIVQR
Description: as §1, §2, §3

[7] = biological target: c-kit (Homo sapiens, UniProt P10721); details: 1 h; class symbol: % inhibition at 10 μM or IC50; read-out: Inhibitory effect on target c-kit
Description: as §1, §2, §3

[8] = biological target: EGFR (Homo sapiens, UniProt P00533); details: class symbol: % inhibition at 10 μM or IC50
Chain of EGFR (P00533 25-1210, species assumed): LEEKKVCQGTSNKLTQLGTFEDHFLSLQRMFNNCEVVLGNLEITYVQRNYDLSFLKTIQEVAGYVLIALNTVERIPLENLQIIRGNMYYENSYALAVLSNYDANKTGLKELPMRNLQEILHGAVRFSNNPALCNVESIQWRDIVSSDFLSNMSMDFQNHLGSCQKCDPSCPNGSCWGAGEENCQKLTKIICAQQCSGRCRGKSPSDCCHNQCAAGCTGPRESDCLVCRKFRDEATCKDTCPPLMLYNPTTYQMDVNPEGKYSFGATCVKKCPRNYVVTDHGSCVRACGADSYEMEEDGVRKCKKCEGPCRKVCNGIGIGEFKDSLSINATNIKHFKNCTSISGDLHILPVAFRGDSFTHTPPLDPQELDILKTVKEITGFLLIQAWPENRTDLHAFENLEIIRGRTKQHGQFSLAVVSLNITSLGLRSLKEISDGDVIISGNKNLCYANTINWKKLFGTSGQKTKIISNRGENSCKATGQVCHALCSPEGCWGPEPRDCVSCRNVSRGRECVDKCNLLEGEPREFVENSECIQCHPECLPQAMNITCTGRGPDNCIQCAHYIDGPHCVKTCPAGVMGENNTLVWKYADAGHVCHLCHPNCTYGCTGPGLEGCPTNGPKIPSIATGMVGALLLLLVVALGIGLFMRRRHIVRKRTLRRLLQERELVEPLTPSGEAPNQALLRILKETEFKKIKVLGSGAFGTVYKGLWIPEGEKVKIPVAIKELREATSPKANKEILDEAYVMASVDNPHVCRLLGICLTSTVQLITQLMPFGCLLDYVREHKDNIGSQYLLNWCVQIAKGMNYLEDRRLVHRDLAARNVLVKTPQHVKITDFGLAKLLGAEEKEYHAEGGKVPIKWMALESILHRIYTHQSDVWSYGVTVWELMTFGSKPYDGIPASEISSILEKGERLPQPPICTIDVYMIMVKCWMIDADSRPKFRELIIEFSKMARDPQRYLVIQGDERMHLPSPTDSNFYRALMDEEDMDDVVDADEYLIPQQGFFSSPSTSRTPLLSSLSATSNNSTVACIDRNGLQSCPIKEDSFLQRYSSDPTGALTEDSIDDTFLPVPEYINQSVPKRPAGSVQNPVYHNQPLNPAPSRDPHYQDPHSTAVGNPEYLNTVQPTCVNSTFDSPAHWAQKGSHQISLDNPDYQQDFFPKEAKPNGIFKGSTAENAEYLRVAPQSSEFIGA
Description: as §1, §2, §3

[9] = biological target: CDK1/CyclinB (Homo sapiens, UniProt P06493); details: class symbol: % inhibition at 10 μM or IC50
Description: as §1, §2, §3

[10] = biological target: c-Src (Homo sapiens, UniProt P12931); details: class symbol: % inhibition at 10 μM or IC50
Description: as §1, §2, §3

[11] = biological target: CDK5/p35 (Homo sapiens, UniProt Q00535); details: class symbol: % inhibition at 10 μM or IC50
Description: as §1, §2, §3

[12] = biological target: CDK2/CyclinA (Homo sapiens, UniProt P24941); details: class symbol: % inhibition at 10 μM or IC50
Description: as §1, §2, §3

| Structure (SMILES) | inhibition at 10 µM [1] | inhibition at 10 µM [2] | Inhibitory effect on target RICK [1] | inhibition at 10 µM [4] | inhibition at 10 µM [5] | inhibition at 10 µM [6] | inhibition at 10 µM [7] | Inhibitory effect on target ROCK 2 [2] | Inhibitory effect on target PDGFR [3] | Inhibitory effect on target EGFR [8] | Inhibitory effect on target CDK1/CyclinB [9] | Inhibitory effect on target c-Src [10] | Inhibitory effect on target CDK5/p35 [11] | Inhibitory effect on target CDK2/CyclinA [12] |
| --- | --- | --- | --- | --- | --- | --- | --- | --- | --- | --- | --- | --- | --- | --- |
| Oc1ccc(-c2cncc(NCc3ccc4c(c3)OCO4)c2)cc1 [Compound 126, 4-{5-[(Benzo[1,3]dioxol-5-ylmethyl)-amino]-pyridin-3-yl}-phenol] | 50 to 90% | 50 to 90% |  |  |  |  |  |  |  |  |  |  |  |  |
| Oc1cccc(CNc2cncc(-c3cccc(O)c3)c2)c1 [Compound 225, 3-{5-[(3-Hydroxybenzyl)amino]pyridin-3-yl}phenol] |  | 50 to 90% | C (C: IC50 measured: <1 μM) | > 90% | 50 to 90% | 50 to 90% | > 90% |  | A (A: 50-90% inhibition at 10 μM enzyme concentration) | A (A: 50-90% inhibition at 10 μM enzyme concentration) |  |  |  |  |
| OCc1ccc(-c2cncc(NCc3cccc(O)c3)c2)cc1 [Compound 229, 3-{[5-(4-Hydroxymethyl-phenyl)-pyridin-3-ylamino]-methyl}-phenol] |  | 50 to 90% | C (C: IC50 measured: <1 μM) | 50 to 90% | 50 to 90% | 50 to 90% | > 90% |  | A (A: 50-90% inhibition at 10 μM enzyme concentration) | A (A: 50-90% inhibition at 10 μM enzyme concentration) |  |  |  |  |
| Oc1cccc(CNc2cncc(-c3ccccc3)c2)c1 [Compound 238, 3-[(5-Phenyl-pyridin-3-ylamino)-methyl]-phenol] |  |  | C (C: IC50 measured: <1 μM) | 50 to 90% | 50 to 90% | 50 to 90% | > 90% |  | A (A: 50-90% inhibition at 10 μM enzyme concentration) | A (A: 50-90% inhibition at 10 μM enzyme concentration) |  |  |  |  |
| COC(=O)c1cccc(-c2cncc(NCc3cccc(O)c3)c2)c1 [Compound 243, 3-[5-(3-Hydroxy-benzylamino)-pyridin-3-yl]-benzoic acid methyl ester] |  | 50 to 90% | C (C: IC50 measured: <1 μM) | > 90% | 50 to 90% | 50 to 90% | 50 to 90% |  |  |  |  |  |  | B (B: >90% inhibition at 10 μM enzyme concentration) |
| Cc1ccc(CNc2cncc(-c3cccc(O)c3)c2)cc1O [Compound 247, 5-{[5-(3-Hydroxy-phenyl)-pyridin-3-ylamino]-methyl}-2-methyl-phenol] |  | 50 to 90% | C (C: IC50 measured: <1 μM) |  |  |  | 50 to 90% |  | A (A: 50-90% inhibition at 10 μM enzyme concentration) | A (A: 50-90% inhibition at 10 μM enzyme concentration) |  |  |  |  |
| Oc1cccc(CNc2cncc(Cc3cccc(O)c3)c2)c1 [Compound 272, (3-hydroxy-benzyl)-[5-(3-hydroxy-benzyl)-pyridin-3-yl]-amine] |  | 50 to 90% |  |  |  |  |  |  |  |  |  |  | A (A: 50-90% inhibition at 10 μM enzyme concentration) | B (B: >90% inhibition at 10 μM enzyme concentration) |

More lines, main results first:

| inhibition at 10 µM [1] | inhibition at 10 µM [2] | Inhibitory effect on target RICK [1] | inhibition at 10 µM [4] | inhibition at 10 µM [5] | inhibition at 10 µM [6] | inhibition at 10 µM [7] | Inhibitory effect on target ROCK 2 [2] | Structure (SMILES) | Inhibitory effect on target PDGFR [3] | Inhibitory effect on target EGFR [8] | Inhibitory effect on target CDK1/CyclinB [9] | Inhibitory effect on target c-Src [10] | Inhibitory effect on target CDK5/p35 [11] | Inhibitory effect on target CDK2/CyclinA [12] |
| --- | --- | --- | --- | --- | --- | --- | --- | --- | --- | --- | --- | --- | --- | --- |
| 50 to 90% | 50 to 90% |  |  |  |  |  |  | Oc1ccc(-c2cncc(NCc3ccc(F)c(F)c3)c2)cc1 [Compound 127, 4-[5-(3,4-Difluoro-benzylamino)-pyridin-3-yl]-phenol] |  |  |  |  |  |  |
|  |  | C (C: IC50 measured: <1 μM) | > 90% | 50 to 90% | > 90% | > 90% | C (C: IC50 measured: <1 μM) | NC(=O)c1cccc(-c2cncc(NCc3cccc(O)c3)c2)c1 [Compound 230, 3-[5-(3-Hydroxy-benzylamino)-pyridin-3-yl]-benzamide] |  | A (A: 50-90% inhibition at 10 μM enzyme concentration) |  |  |  |  |
|  |  | C (C: IC50 measured: <1 μM) | 50 to 90% | 50 to 90% | 50 to 90% | 50 to 90% |  | Oc1cccc(CNc2cncc(-c3cccc(O)c3F)c2)c1 [Compound 231, 2-Fluoro-3-[5-(3-hydroxy-benzylamino)-pyridin-3-yl]-phenol] | A (A: 50-90% inhibition at 10 μM enzyme concentration) | A (A: 50-90% inhibition at 10 μM enzyme concentration) | A (A: 50-90% inhibition at 10 μM enzyme concentration) | B (B: >90% inhibition at 10 μM enzyme concentration) | A (A: 50-90% inhibition at 10 μM enzyme concentration) |  |
|  |  | C (C: IC50 measured: <1 μM) |  |  |  |  |  | CC(=O)Nc1cccc(-c2cncc(Nc3ccc(F)cc3)c2)c1 [Compound 235, N-{3-[5-(4-Fluoro-phenylamino)-pyridin-3-yl]-phenyl}-acetamide] | A (A: 50-90% inhibition at 10 μM enzyme concentration) | A (A: 50-90% inhibition at 10 μM enzyme concentration) | A (A: 50-90% inhibition at 10 μM enzyme concentration) |  |  |  |
|  |  | C (C: IC50 measured: <1 μM) | 50 to 90% | 50 to 90% | 50 to 90% | > 90% |  | COc1cccc(-c2cncc(NCc3cccc(O)c3)c2)c1F [Compound 236, 3-{[5-(2-Fluoro-3-methoxy-phenyl)-pyridin-3-ylamino]-methyl}-phenol] | A (A: 50-90% inhibition at 10 μM enzyme concentration) | A (A: 50-90% inhibition at 10 μM enzyme concentration) | A (A: 50-90% inhibition at 10 μM enzyme concentration) | A (A: 50-90% inhibition at 10 μM enzyme concentration) |  |  |
|  |  | C (C: IC50 measured: <1 μM) | 50 to 90% |  |  |  |  | COc1ccccc1Nc1cncc(-c2cccc(NC(C)=O)c2)c1 [Compound 240, N-{3-[5-(2-Methoxy-phenylamino)-pyridin-3-yl]-phenyl}-acetamide] | A (A: 50-90% inhibition at 10 μM enzyme concentration) |  | A (A: 50-90% inhibition at 10 μM enzyme concentration) |  |  |  |
|  |  | C (C: IC50 measured: <1 μM) | 50 to 90% | > 90% | 50 to 90% | 50 to 90% |  | O=C(O)c1cccc(-c2cncc(NCc3cccc(O)c3)c2)c1 [Compound 246, 3-[5-(3-Hydroxy-benzylamino)-pyridin-3-yl]-benzoic acid] | A (A: 50-90% inhibition at 10 μM enzyme concentration) | A (A: 50-90% inhibition at 10 μM enzyme concentration) |  |  |  |  |
